What was measured:
human Cav1.2 channel = target: T1, human Cav1.2 channel (Homo sapiens, UniProt Q13936); experiment: In vitro assay L channel (FLIPR calcium fluorescence); assay type: cell-based; settings: HEK293 cells expressing human Cav1.2 with β-2a and α2δ-1; 20 mM KCl-induced fluo-4 fluorescence; determined up to 10 μM; read-out: L channel antagonistic activity (IC50)
T1 construct: expressed in transfected cells; host or cells: HEK293
Procedure: The L channel antagonistic activity (IC50 values) of the compounds of formula (I) is determined in accordance with the following experimental method.
Human embryonic kidney (HEK293) cells expressing the human Cav1.2 channel in addition to the auxiliary subunits β-2a and α2δ-1, are grown in culture medium (DMEM containing 10% heat-inactivated fetal calf serum (FCS), 100 U/ml penicillin, 100 μg/ml streptomycin, 100 μg/ml G418, 40 μg/ml zeocin and 100 μg/ml hygromycin). The cells are seeded at 20.000 cells/well into 384-well black clear bottom sterile plates (poly-L-lysine-coated, Becton Dickinson). The seeded plates are incubated overnight at 37° C. in 5% CO2. The KCl solution is prepared as 80 mM stock solution in assay buffer (HBSS containing 0.1% BSA, 20 mM HEPES, 0.375 g/l NaHCO3, adjusted to pH 7.4 with NaOH) for use in the assay at a final concentration of 20 mM. Antagonists are prepared as 10 mM stock solutions in DMSO, then diluted in 384 w plates first in DMSO, then in assay buffer to obtain 3× stocks. On the day of the assay, 25 μl of staining buffer (HBSS containing 20 mM HEPES, 0.375 g/l NaHCO3, and 3 μM of the fluorescent calcium indicator fluo-4 AM (1 mM stock solution in DMSO, containing 10% pluronic) is added to each well of the seeded plate. The 384-well cell-plates are incubated for 60 min at 37° C. in 5% CO2 followed by washing with 2×50 μl per well using assay buffer leaving 50 μl/well of this buffer for equilibration at room temperature (30-60 min). Within the Fluorescent Imaging Plate Reader (FLIPR, Molecular Devices), antagonists are added to the plate in a volume of 25 μl/well, incubated for 3 min and finally 25 μl/well of KCl solution is added for cellular depolarization. Fluorescence is measured for each well at 2 second intervals for 8 minutes, and the area under the curve of each fluorescence peak is compared to the area of the fluorescence peak induced by 20 mM KCl with vehicle in place of antagonist. […]

[1] = test system: human Cav3.1 Cav3.2 or Cav3.3 channel; experiment: In vitro assay T channel (FLIPR calcium fluorescence); assay type: cell-based; settings: HEK293 cells expressing human Cav3.1, Cav3.2 or Cav3.3; 10 mM Ca2+-induced fluo-4 fluorescence; determined up to 10 μM; read-out: T channel antagonistic activity IC50
Summary of the method: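 HEK293 cells stably expressing human Cav3.1, Cav3.2 or Cav3.3 loaded with fluo-4 AM (3 μM), preincubated 3 min with antagonist, then stimulated with 10 mM Ca2+ in TEA-chloride/HEPES buffer pH 7.2. FLIPR fluorescence read every 2 s for 8 min; IC50 from peak area versus vehicle, tested up to 10 μM.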

isolated mouse hearts = experiment: Effect on isolated hearts according to the Langendorff method (Lgdff)
Procedure: Effect on Isolated Hearts According to the Langendorff Method (Lgdff)
The compounds were tested for their potential to reduce blood pressure and their effect on the contractility of the heart muscle. EC50 values on isolated mouse hearts were determined according to Literature (Doring H J., The isolated perfused heart according to Langendorff technique—function—application, Physiol. Bohemoslov. 1990, 39(6), 481-504; Kligfield P, Horner H, Brachfeld N., A model of graded ischemia in the isolated perfused rat heart, J. Appl. Physiol. 1976 June, 40(6), 1004-8).
51 example compounds have been measured using the procedure described above for the Langendorff experiment. The measured EC50 values were in the range of 4 to 669 nM with an average of 37 nM.

T1 sequence (Q13936 whole entry): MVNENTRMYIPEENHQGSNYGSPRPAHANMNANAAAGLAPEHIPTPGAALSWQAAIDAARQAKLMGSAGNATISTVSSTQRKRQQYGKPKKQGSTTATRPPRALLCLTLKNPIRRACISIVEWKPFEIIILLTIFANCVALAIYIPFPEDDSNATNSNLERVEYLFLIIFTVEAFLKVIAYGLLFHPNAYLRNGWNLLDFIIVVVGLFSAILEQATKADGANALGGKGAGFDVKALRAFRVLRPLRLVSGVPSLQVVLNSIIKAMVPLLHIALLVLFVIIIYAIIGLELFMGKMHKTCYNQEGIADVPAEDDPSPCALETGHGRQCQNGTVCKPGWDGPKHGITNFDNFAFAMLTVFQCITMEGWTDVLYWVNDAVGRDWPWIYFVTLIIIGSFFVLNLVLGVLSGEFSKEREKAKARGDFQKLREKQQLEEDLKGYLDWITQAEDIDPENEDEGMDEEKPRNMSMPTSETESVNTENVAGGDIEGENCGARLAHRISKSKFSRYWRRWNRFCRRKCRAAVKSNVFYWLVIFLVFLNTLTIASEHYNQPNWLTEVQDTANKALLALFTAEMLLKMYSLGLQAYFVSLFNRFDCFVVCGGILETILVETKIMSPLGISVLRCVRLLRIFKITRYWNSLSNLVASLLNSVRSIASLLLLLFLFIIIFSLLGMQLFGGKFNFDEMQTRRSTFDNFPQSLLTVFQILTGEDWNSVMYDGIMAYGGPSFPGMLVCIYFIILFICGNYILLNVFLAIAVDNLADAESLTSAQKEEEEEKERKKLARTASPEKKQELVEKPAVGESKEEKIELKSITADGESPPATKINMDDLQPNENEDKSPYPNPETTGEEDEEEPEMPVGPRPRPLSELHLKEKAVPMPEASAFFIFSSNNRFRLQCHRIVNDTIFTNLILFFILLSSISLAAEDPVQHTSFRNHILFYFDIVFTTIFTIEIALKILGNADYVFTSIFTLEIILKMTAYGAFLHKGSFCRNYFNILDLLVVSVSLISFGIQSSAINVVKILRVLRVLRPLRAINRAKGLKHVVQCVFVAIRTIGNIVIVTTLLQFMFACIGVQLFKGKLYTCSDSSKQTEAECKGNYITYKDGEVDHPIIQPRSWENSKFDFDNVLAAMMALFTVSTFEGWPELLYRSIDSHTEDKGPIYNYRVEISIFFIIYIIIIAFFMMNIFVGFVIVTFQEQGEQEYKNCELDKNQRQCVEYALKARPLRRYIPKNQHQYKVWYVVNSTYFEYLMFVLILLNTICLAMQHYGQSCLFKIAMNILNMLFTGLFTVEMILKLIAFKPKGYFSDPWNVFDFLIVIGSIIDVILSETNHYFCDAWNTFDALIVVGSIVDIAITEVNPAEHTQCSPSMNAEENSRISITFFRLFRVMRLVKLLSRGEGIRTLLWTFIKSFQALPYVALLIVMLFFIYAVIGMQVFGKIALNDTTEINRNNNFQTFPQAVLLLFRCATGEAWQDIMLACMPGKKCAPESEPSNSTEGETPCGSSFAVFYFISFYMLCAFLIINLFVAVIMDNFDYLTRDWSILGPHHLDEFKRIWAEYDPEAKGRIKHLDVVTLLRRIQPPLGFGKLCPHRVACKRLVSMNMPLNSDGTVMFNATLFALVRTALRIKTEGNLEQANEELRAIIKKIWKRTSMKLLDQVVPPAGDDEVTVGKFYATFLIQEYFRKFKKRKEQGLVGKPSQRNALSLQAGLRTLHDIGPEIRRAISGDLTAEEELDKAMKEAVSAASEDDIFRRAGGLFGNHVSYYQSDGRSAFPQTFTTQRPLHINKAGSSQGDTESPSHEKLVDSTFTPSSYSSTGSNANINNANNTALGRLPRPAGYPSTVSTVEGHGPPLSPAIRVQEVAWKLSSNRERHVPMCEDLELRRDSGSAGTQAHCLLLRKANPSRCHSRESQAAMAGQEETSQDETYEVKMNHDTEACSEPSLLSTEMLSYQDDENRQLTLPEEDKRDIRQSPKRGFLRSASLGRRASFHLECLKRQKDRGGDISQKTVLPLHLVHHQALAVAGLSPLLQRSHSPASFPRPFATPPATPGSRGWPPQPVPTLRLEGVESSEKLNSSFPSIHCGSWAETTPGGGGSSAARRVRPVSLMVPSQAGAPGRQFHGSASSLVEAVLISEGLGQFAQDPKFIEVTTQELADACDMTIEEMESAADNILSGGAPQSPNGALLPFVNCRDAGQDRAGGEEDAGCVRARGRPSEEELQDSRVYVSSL

With `CN(CCCc1nc2ccccc2[nH]1)CC[C@]1(O)C[C@H]2CC[C@@H]1C=C2c1ncco1` (racemic) [Example 25, rac-(1R*,2R*,4R*)-2-(2-{[3-(1H-Benzoimidazol-2-yl)-propyl]-methyl-amino}-ethyl)-5-oxazol-2-yl-bicyclo[2.2.2]oct-5-en-2-ol] the IC50 (human Cav1.2 channel) was > 10 µM and the IC50 [1] was > 10 µM.
With `CN(CCCc1nc2ccccc2[nH]1)CC[C@]1(O)C[C@@H]2C=C[C@H]1CC2` (racemic) [Example 75, rac-(1R*,2R*,4R*)-2-(2-{[3-(1H-Benzoimidazol-2-yl)-propyl]-methyl-amino}-ethyl)-bicyclo[2.2.2]oct-5-en-2-ol] the IC50 (human Cav1.2 channel) was > 10 µM and the IC50 [1] was > 10 µM.
For `CC(C)C(=O)O[C@@]1(CCN(C)CCCc2nc3ccccc3[nH]2)C[C@H]2CC[C@@H]1C=C2c1ccc2ccccc2c1` (racemic) [Example 10A, rac-Isobutyric acid (1R*,2R*,4R*)-2-(2-{[3-(1H-benzoimidazol-2-yl)-propyl]-methyl-amino}-ethyl)-5-naphthalen-2-yl-bicyclo[2.2.2]oct-5-en-2-yl ester], the IC50 (human Cav1.2 channel) was > 10 µM, the IC50 [1] was > 10 µM and the EC50 (isolated mouse hearts) was 0.013 µM.
